According to patent US20080009451A1, “Applications of kidney secreted bone growth factor and pharmaceutical use of flavonol and flavonol glycosides for stimulating the secretion of kidney secreted bone growth factor” (priority 2005, published 2008):
Entries after “also recorded” stand apart in the source; their conditions may differ.

Legend:
[1] = test system: opossum kidney (OK) cell; experiment: Renal tubular (OK) cell proliferation, CellTiter 96 at OD570; assay type: cell-based; settings: compound added to OK cells, 0-60 nM (0-79 nM) or various concentrations, three days incubation (24 hours in Example 3.2)
Method: Flavonol Increased Renal Tubular Cell Proliferation Ok cells at 1×10^4/ml (0.1 ml) were added into 96 wells plate. Several flavonol ? Fisetin, ? Kaempferol, ? quercetin a ? ? icariin or the control flavonoid (which are not flavonol) such as apigenin and kaempferol-3-methyl ether were added to make the final concentration at 0-60 nM. (0-79 nM)
After three days incubation, the cell growth was examined with CellTiter 96 (Non-Radioactive Cell Proliferation Assay kit) (Promega) at OD570 nm. The higher OD, the higher the numbers of living cells. (FIG. 2.)
OK cell, MC 3T3 E1 and HHF cells at 2×10^4/ml (0.1 ml) were added into 96 well plates, with various concentration of kaempferol was applied. After the cells were cultured for 3 days, cell growth was examined.
Preparation of OKM and CM: OK cells at 2×10^4/ml (0.1 ml) mixed with various concentrations of kaempferol were incubated in 96 well plate. The medium made of the same condition as above without OK cells was also incubated in the 96 well plates. After 24 hour, the mediums were collected. The OK cell growth was examined.

[2] = test system: MC 3T3 E1 cell (osteoblast); experiment: Osteoblast proliferation in OK cell conditioned medium (OKM); assay type: cell-based; settings: OK cells incubated 24 hours with compound, 80 μl medium on MC 3T3 E1, 3 days
Method: In this example, OK cells were used as the kidney tubular cell. OK cells at 6×10^4ml (3 ml) were added into 6 wells plate and various concentrations of flavonol, flavonol glycosides, apigenin and isokaempferol were applied. At the same time, the control culture medium (CM) with the same condition as above but without cells was prepared. After 24 hours incubation, the medium was collected for osteoblast culture. The OK cell growth was examined as discussed above. In this example, the osteoblast was the MC 3T3 E1 cell. MC 3T3 E1 at 1×10^5/ml (20 μl) was added into 96 wells plate. Additionally, 80 μL of OKM or CM were recruited. After 3 days incubation, the osteoblast growth was examined as discussed above. […] OK cells at 2×10^4/ml (0.1 ml) mixed with various concentrations of kaempferol were incubated in 96 well plate. The medium made of the same condition as above without OK cells was also incubated in the 96 well plates. After 24 hour, the mediums were collected. The OK cell growth was examined. MC 3T3 E1 cells at 1×10^5/ml (20 μl) were applied into 96 well plate along with OKM and CM (80 μl). After 3 days incubation, the cell numbers were examined. The preparation of OKM and CM: OK cells at 6×10^4/ml (3 ml) were incubated in 6 well plates over night. After the medium was removed, the fresh medium with or without 70 nM kaempferol was added. The control medium (CM) was prepared under the same condition, without OK cells. After incubation for 24 hour, all medium were collected for MC 3T3 E1 and HFF cell growth experiments. MC 3T3 E1 and HFF cell at 1×10^5/ml were added (20 μl) into 96 well plates. In addition, 80 μl of OKM, CM and fresh culture medium with and without kaempferol were applied.

[3] = test system: human heart fibroblast (HHF/HFF); experiment: Fibroblast proliferation in OK cell conditioned medium (OKM); assay type: cell-based; settings: OK cells incubated 24 hours with compound; medium on human heart fibroblast; 3 days
Method: In this example, OK cells were used as the kidney tubular cell. OK cells at 6×10^4ml (3 ml) were added into 6 wells plate and various concentrations of flavonol, flavonol glycosides, apigenin and isokaempferol were applied. At the same time, the control culture medium (CM) with the same condition as above but without cells was prepared. After 24 hours incubation, the medium was collected for osteoblast culture. The OK cell growth was examined as discussed above. The preparation of OKM and CM: OK cells at 6×10^4/ml (3 ml) were incubated in 6 well plates over night. After the medium was removed, the fresh medium with or without 70 nM kaempferol was added. The control medium (CM) was prepared under the same condition, without OK cells. After incubation for 24 hour, all medium were collected for MC 3T3 E1 and HFF cell growth experiments. MC 3T3 E1 and HFF cell at 1×10^5/ml were added (20 μl) into 96 well plates. In addition, 80 μl of OKM, CM and fresh culture medium with and without kaempferol were applied.

[4] = test system: MC 3T3 E1 cell (osteoblast); experiment: Direct effect of compound on osteoblast proliferation; assay type: cell-based; settings: medium incubated without kidney cells; 70 nM or various concentrations; 3 days
Method: (§1) OK cell, MC 3T3 E1 and HHF cells at 2×10^4/ml (0.1 ml) were added into 96 well plates, with various concentration of kaempferol was applied. After the cells were cultured for 3 days, cell growth was examined. The preparation of OKM and CM: OK cells at 6×10^4/ml (3 ml) were incubated in 6 well plates over night. After the medium was removed, the fresh medium with or without 70 nM kaempferol was added. The control medium (CM) was prepared under the same condition, without OK cells. After incubation for 24 hour, all medium were collected for MC 3T3 E1 and HFF cell growth experiments. MC 3T3 E1 and HFF cell at 1×10^5/ml were added (20 μl) into 96 well plates. In addition, 80 μl of OKM, CM and fresh culture medium with and without kaempferol were applied.

[5] = test system: HHF cells (human heart fibroblast); experiment: Direct effect of compound on fibroblast proliferation; assay type: cell-based; settings: medium incubated without kidney cells; 70 nM kaempferol; 3 days
Method: as §1

[6] = test system: BMPR II; experiment: BMPR II on OK cells, immunostain and Western blot; assay type: cell-based, opossum
From the text: BMPR I was not found in OK cells sample, BMPR II was found on OK cell. […] Both FIGS. 6A and 6B indicate that kaempferol increases the quantity of BMPR II on OK cell.

[7] = test system: BMP7; experiment: BMP7 in kaempferol conditioned OKM, immune-precipitation and Western blot; assay type: cell-based, opossum; settings: Western blot; not been repeated yet
From the text: (§2) Detail of Immune-Precipitation and Detail of Western Blot Used Standard Methods and Anti-BMP 2/4 and 7.

[8] = test system: BMP2/4; experiment: BMP2/4 in kaempferol conditioned OKM, immune-precipitation and Western blot; assay type: cell-based, opossum; settings: Western blot; not been repeated yet
From the text: as §2

[9] = test system: P63; experiment: P63 (63 kDa protein) in kaempferol conditioned OKM, over-exposed anti-BMP2/4 Western blot; assay type: cell-based, opossum; settings: over-exposed film; not been repeated yet
From the text: Detail of Immune-Precipitation and Detail of Western Blot Used Standard Methods and Anti-BMP 2/4 and 7. 3). […] According to the instruction from the manufacture, anti-BMP2/4 antibody may react with BMP8, 9 and 10 or other proteins. The P63 may be BMP 8, 9, 10 or another protein related to the BMP2/4.

[10] = test system: MC 3T3 E1 cell (osteoblast); experiment: Osteoblast proliferation in human kidney tubular cell (HK-2) conditioned medium (HKM); assay type: cell-based; settings: HK-2 cells, 70 nM kaempferol, 24 hours; medium on MC 3T3 E1 for 3 days
Method: Human kidney tubular cells (HK-2) with the concentration at 1×10^5/ml (1 mL) grew in 24 well plate overnight. The cells in the wells were washed by 1 mL of PBS three times. Fresh culture medium (80 μL) without FBS but contained 0 and 70 nM kaempferol were added. The same medium without cells also prepared as above. After the samples were cultured for 24 hours, the medium was collected and named respectively 70 […] 0CM. They were used for osteoblast and fibroblast culture. MC 3T3 E1 and HFF cell at 1×10^5/ml were added (20 μl) into 96 wells plate. In addition, 80 μl of 70 […] 0CM were applied.

[11] = animal models; cited from earlier work
[12] = acute renal ischemia, unilateral uretheral obstruction, diabetic nephropathy, lupus nephritis models; cited from earlier work

## O=c1cc(-c2ccc(O)cc2)oc2cc(O)cc(O)c12 [Apigenin, apigenin]
[1]
  OK cell proliferation (optic density): did not increase OK cell proliferation
[1]; listed as apigenin
  OK cell proliferation (optic density): showed no effect
[2]
  osteoblast (MC 3T3 E1) proliferation in compound conditioned-OKM compared with control OKM: did not increase osteoblast proliferation
[3]
  fibroblast proliferation in compound conditioned-OKM: do not increase human heard fibroblast proliferation

## O=c1c(O)c(-c2ccc(O)cc2)oc2cc(O)cc(O)c12 [Kaempferol]
[1]
  OK cell proliferation (optic density): only increased OK cell proliferation
[1]; listed as kaempferol
  OK cell proliferation (optic density): significantly increased; also recorded: showed dose response aspect
[2]
  osteoblast (MC 3T3 E1) proliferation in compound conditioned-OKM compared with control OKM: increasing osteoblast proliferation with a dose response manner; also recorded: additionally promoted MC 3T3 E1 cell proliferation
[2]; listed as kaempferol
  osteoblast (MC 3T3 E1) proliferation in compound conditioned-OKM compared with control OKM: significantly increased compared with that in the control OKM
[3]
  fibroblast proliferation in compound conditioned-OKM: also did not promote HHF cell proliferation
[4]
  MC 3T3 E1 proliferation in control medium (CM) or fresh medium containing compound: did not promote MC 3T3 E1 and HHF cell proliferation
[5]
  fibroblast (HHF) proliferation in control medium (CM) or fresh medium containing compound: did not increase human fibroblast proliferation; also recorded: did not promote MC 3T3 E1 and HHF cell proliferation
[6]; Western blot with anti-BMPR II
  quantity of BMPR II on OK cells (Western blot): increased the quantity of BMPR II on OK cells
[6]; immunostain with anti-BMP receptor II
  density of BMPR II on OK cells (immunostain): increased the density of BMPR II on OK cells
[7]
  quantity of BMP7 in OKM: increased by dose response of kaempferol; also recorded: increased in dose response to kaempferol concentration
[8]
  quantity of BMP2/4 in OKM: increased by dose response of kaempferol
[9]
  quantity of P63 in OKM: increased with dose response of kaempferol; also recorded: also increased with the dose of kaempferol
[10]
  MC 3T3 E1 proliferation in kaempferol conditioned HKM compared with 0HKM: increased the promotion; also recorded: additionally increases the promotion

## COc1c(-c2ccc(O)cc2)oc2cc(O)cc(O)c2c1=O [isokaempferol, kaempferol-3-methyl ether]
[1]
  OK cell proliferation (optic density): did not increase OK cell proliferation
[1]; listed as kaempferol-3-methyl ether
  OK cell proliferation (optic density): showed no effect
[2]
  osteoblast (MC 3T3 E1) proliferation in compound conditioned-OKM compared with control OKM: did not increase osteoblast proliferation
[3]
  fibroblast proliferation in compound conditioned-OKM: do not increase human heard fibroblast proliferation

B1: BMP-7: Bone Morphogenic Protein 7, secreted protein (protein, UniProt P18075 293-431, looked up)
Bone morphogenetic protein 7: STGSKQRSQNRSKTPKNQEALRMANVAENSSSDQRQACKKHELYVSFRDLGWQDWIIAPEGYAAYYCEGECAFPLNSYMNATNHAIVQTLVHFINPETVPKPCCAPTQLNAISVLYFDDSSNVILKKYRNMVVRACGCH
[11]
  effect on osteoporosis associated with renal failure: benefit
[12]
  prevention of renal failure: prevent renal failure
